# In EP2002836B1, “Cyclocondensed azaindoles active as kinase inhibitors” (Nerviano Medical Sciences S.r.l., priority 2007, dated 2008):
# Target: AKT1 (Homo sapiens, UniProt P31749)
# Assay: FABS-NMR screening (3-FABS, 19F-labelled AKTide-like substrate) on AKT-1
# Format: biochemical
# Design: The active human Ser-Thr protein kinase AKT-1 Full Length was expressed as GST fusion protein; GST (cleaved yes); made in house; host or cells: insect cells
# Details: 25 nM protein, 30 µM substrate, 1.5 mM ATP; read-out: AKT1 IC50 (µM) FABS NMR assay
# Method: The biochemical functional NMR screening on the proteins kinase AKT-1 and PKA was performed using the 3-FABS (3-Fluorine Atoms for Biochemical Screening) technique developed by C. Dalvit and the NMR group in house (C. Dalvit et al 2003 J. Am. Chem. Soc. 125 (47): 14620).
# The method require the use of a ^19F-labelled substrate. The same commercial peptide was used as substrate in both enzymatic reaction: the Tyr just before the phosphorilation site in the AKTide peptide was mutated in a 3-tryfluormethyl-Phe by Bachem.
# The AKTide like peptide sequence is reported below: • H-Ala-Arg-Lys-Arg-Glu-Arg-Ala-F(3-CF3)-Ser-Phe-Gly-His-His-Ala-OH
# The active human Ser-Thr protein kinase AKT-1 Full Length was expressed as GST fusion protein in insect cells and then the GST was cleaved with PreScission protease. The active cycled AMP-dependent human protein kinase A PKA was expressed as polyHis-tag protein in E.Coli and purified by affinity column.
# Reactions were performed in an end point format in eppendorf of 0.5 ml using the buffer solution 50mM Tris, pH 7.5, 5mM MgCl2, 1mM DTT, 8% D2O and 0.001% Triton-X-100; the final volume was of 560 µl. The substrate and protein concentration were of 30 µM and 25 nM respectively. The reactions were performed using an ATP concentration of about 9 times its KM: 150 µM in the test with PKA and 1.5 mM in the AKT-1 experiments. A sample in absence of inhibitor was run as control in order to follow the ongoing of the reaction and it represents the 0% inhibition. Different concentration compound stock solutions in DMSOd6 were made in order to add the same amount of DMSOd6 in each sample: usually the compounds stock were of 0.03, 0.2, 2, and 10 mM. 0.56 µl of these solution was added in each sample in order to reach the final compounds concentration of 30 nM, 200 nM 2 µM and 10 µM respectively; 0.56 µl of DMSOd6 was added in the control too. The reactions were quenched after about 100/120 minutes with 10 mM of Staurosporine (Sigma code:S4400), transferred into the 5 mm NMR tube (Cortec code: NE-MP5-8) and put onto the Sample Management System (SMS) autosampler for automatic data collection. The spectra were recorded using the Varian Inova 600 MHz NMR spectrometer operating at a ^19F Larmor frequency of 564 MHz and using a 5mm probe with the inner coil tuned to ^19F and the outer coil tuned to H. The data were recorded without proton decoupling with a spectral width of 12000 Hz, an acquisition time of 0.8s and a relaxation delay of 2.8s. Chemical shifts are referenced to trifluoroacetic acid.
# IC50 determination was achieved by measuring the substrate signal as a function of the inhibitor concentration using one of the formulas below. […] IC50 data were analyzed with non-linear least squares methods in the Origin 5.0 software package.
# Sequence of AKT1 (P31749 whole entry): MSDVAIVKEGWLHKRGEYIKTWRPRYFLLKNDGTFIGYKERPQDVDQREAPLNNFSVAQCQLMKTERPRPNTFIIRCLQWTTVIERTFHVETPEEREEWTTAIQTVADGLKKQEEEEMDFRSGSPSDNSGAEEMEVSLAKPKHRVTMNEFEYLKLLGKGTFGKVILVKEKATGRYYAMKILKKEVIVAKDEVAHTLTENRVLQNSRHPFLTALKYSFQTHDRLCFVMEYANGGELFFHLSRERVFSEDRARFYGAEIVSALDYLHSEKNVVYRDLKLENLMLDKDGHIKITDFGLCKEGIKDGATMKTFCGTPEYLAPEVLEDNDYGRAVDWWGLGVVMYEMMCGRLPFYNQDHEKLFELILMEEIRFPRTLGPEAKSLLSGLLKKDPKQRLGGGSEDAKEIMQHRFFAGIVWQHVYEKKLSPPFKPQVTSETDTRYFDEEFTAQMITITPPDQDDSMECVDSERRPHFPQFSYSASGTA
row,IC50 [µM],Structure (SMILES)
1,0.15,"NC[C@H](Cc1ccccc1)NC(=O)C1=Cc2c[nH]c3nccc(c23)CC1 [Cpd. 1, N-[(1S)-2-amino-1-benzylethyl]-6,7-dihydro-2H-2,3-diazabenzo[cd]azulene-8-carboxamide]"
2,0.76,"CC(=O)N1CC(C(=O)N[C@H](CN)Cc2ccccc2)=Cc2c[nH]c3nccc1c23 [Cpd. 3, 6-acetyl-N-[(1S)-2-amino-1-benzylethyl]-6,7-dihydro-2H-2,3,6-triazabenzo[cd]azulene-8-carboxamide]"
3,0.315,"O=C(N[C@H](CN1CCCC1)c1ccccc1)C1=Cc2c[nH]c3nccc(c23)CC1 [Cpd. 6, N-[(1S)-1-phenyl-2-pyrrolidin-1-ylethyl]-6,7-dihydro-2H-2,3-diazabenzo[cd]azulene-8-carboxamide]"
4,0.03,"NC[C@H](Cc1ccccc1)NC(=O)C1=Cc2c[nH]c3nccc(c23)NC1 [compound 2, N-[(1S)-2-amino-1-benzylethyl]-6,7-dihydro-2H-2,3,6-triazabenzo[cd]azulene-8-carboxamide]"
